Measured values reported in US8388986B2, “Use of cationic surfactants in cosmetic preparations” (priority 2001, dated 2013).

Legend:
Yeast = test: preservative efficacy (Antimicrobial Effectiveness Testing USP 24th Edition) in cosmetic formulations; type: cell-based, Candida albicans ATCC 10231; conditions: 0.20 g of LAE
Protocol: (§1) This assay consists of the contamination of the protecting formulations with an inoculum mixture of 10^8 cfu/mL concentration, for each of the microorganisms, and the determination of the number of viable cells in the time. This inoculum mixture is composed of the following microorganisms:
(§2) The cosmetic composition to be analysed is divided into sterile containers with 50 g of product for each flask. Each container is inoculated with 0.5 mL of inoculum (10^8 cfu/mL). The target concentration is 10^6 cfu/mL, approximately. All the containers are kept at a temperature between 20-25° C. and are protected from light.
(§3) The level of the microbial contamination is checked at 0 hours, 7 days, 14 days and 28 days. The number of colonies is evaluated by dilution in buffer peptone with the appropriate neutraliser agent of the preservative. The culture media used for counting the microorganisms are: Soya triptone (35-37° C., 48 hours) for the determination of bacteria; Sabouraud agar with chloramphenicol for fungi and yeast (25° C., 3-5 days).
(§4) According to Antimicrobial Effectiveness Testing USP 24th Edition, 1999 (pp. 1809-1811), an antimicrobial preservative is considered to be effective in topically used products made with aqueous bases or vehicles, non-sterile nasal products and emulsions, including those applied to mucous membranes, if: • Not less than 2.0 logarithm reduction from the initial calculated bacteria's count is reached at 14 days and no increase from the 14 days' count at 28 days is detected; and • No increase from the initial calculated count of yeast and moulds is observed.

[1] = test system: Bacillus subtilis ATCC 6633; test: minimum inhibitory concentration; type: cell-based; conditions: Gram + Bacteria
[2] = test system: Clostridium perfringens ATCC 77454; type: cell-based; conditions: Gram + Bacteria
[3] = test system: Bordetella bronchiseptica ATCC 4617; test: minimum inhibitory concentration; type: cell-based; conditions: Gram − Bacteria
[4] = test system: Leuconostoc mesenteroides CETC 912; test: minimum inhibitory concentration; type: cell-based; conditions: Gram + Bacteria
Aerobes = test: preservative efficacy (Antimicrobial Effectiveness Testing USP 24th Edition) in cosmetic formulations; type: cell-based; conditions: 0.20 g of LAE
Protocol: as §1, §2, §3, §4

[5] = test system: Chaetonium globosum ATCC 6205; test: minimum inhibitory concentration; type: cell-based; conditions: Fungi
[6] = test system: Salmonella typhimurium ATCC 16028; test: minimum inhibitory concentration; type: cell-based; conditions: Gram − Bacteria
[7] = test system: Candida albicans ATCC 10231; test: minimum inhibitory concentration; type: cell-based; conditions: Yeast
[8] = test system: Saccharomyces cerevisiae ATCC 9763; test: minimum inhibitory concentration; type: cell-based; conditions: Yeast
[9] = test system: Pseudomonas aeruginosa ATCC 9027; test: minimum inhibitory concentration; type: cell-based; conditions: Gram − Bacteria
[10] = test system: Listeria monocytogenes ATCC 7644; test: minimum inhibitory concentration; type: cell-based; conditions: Gram + Bacteria
[11] = test system: Escherichia coli ATCC 8739; test: minimum inhibitory concentration; type: cell-based; conditions: Gram − Bacteria
[12] = test system: Alcaligenes faecalis ATCC 8750; test: minimum inhibitory concentration; type: cell-based; conditions: Gram − Bacteria
[13] = test system: Bacillus cereus var mycoide ATCC 11778; test: minimum inhibitory concentration; type: cell-based; conditions: Gram + Bacteria
[14] = Example 1, oil-in-water emulsion with non-ionic surfactant, 7 days
[15] = Example 1, oil-in-water emulsion with non-ionic surfactant, 14 days
[16] = Example 1, oil-in-water emulsion with non-ionic surfactant, Initial
[17] = Example 2, oil-in-water emulsion with an ionic emulsifier, 7 days
[18] = Example 2, oil-in-water emulsion with an ionic emulsifier, 14 days
[19] = Example 2, oil-in-water emulsion with an ionic emulsifier, Initial
[20] = Example 3, water in oil emulsion with non-ionic emulsifiers, 7 days
[21] = Example 3, water in oil emulsion with non-ionic emulsifiers, 14 days
[22] = Example 3, water in oil emulsion with non-ionic emulsifiers, Initial
[23] = Example 4, aqueous solution with a surfactants' mixture (bath gels, disodium cocoamfoacetate), 7 days
[24] = Example 4, aqueous solution with a surfactants' mixture (bath gels, disodium cocoamfoacetate), 14 days
[25] = Example 4, aqueous solution with a surfactants' mixture (bath gels, disodium cocoamfoacetate), Initial
[26] = Example 5, aqueous solution with a surfactants' mixture (bath gels, disodium lauryl sulfosuccinate), 7 days
[27] = Example 5, aqueous solution with a surfactants' mixture (bath gels, disodium lauryl sulfosuccinate), 14 days
[28] = Example 5, aqueous solution with a surfactants' mixture (bath gels, disodium lauryl sulfosuccinate), Initial
[29] = Example 6, hydroalcoholic gel (after-shaving lotions), 7 days
[30] = Example 6, hydroalcoholic gel (after-shaving lotions), 14 days
[31] = Example 6, hydroalcoholic gel (after-shaving lotions), Initial
[32] = Example 7, facial tonic, 7 days
[33] = Example 7, facial tonic, 14 days
[34] = Example 7, facial tonic, Initial
[35] = Example 8, mask-up cleaner, 7 days
[36] = Example 8, mask-up cleaner, 14 days
[37] = Example 8, mask-up cleaner, Initial
[38] = Example 9, fluid oil-in-water emulsion with non-ionic surfactants (body oil), 7 days
[39] = Example 9, fluid oil-in-water emulsion with non-ionic surfactants (body oil), 14 days
[40] = Example 9, fluid oil-in-water emulsion with non-ionic surfactants (body oil), Initial
[41] = Example 10, toothpaste formulation, 7 days
[42] = Example 10, toothpaste formulation, 14 days
[43] = Example 10, toothpaste formulation, Initial
[44] = Example 11, aqueous solution with surfactants (shampoos), 7 days
[45] = Example 11, aqueous solution with surfactants (shampoos), 14 days
[46] = Example 11, aqueous solution with surfactants (shampoos), Initial
[47] = Example 12, oil-in-water emulsion with non-ionic surfactants (face cream), 7 days
[48] = Example 12, oil-in-water emulsion with non-ionic surfactants (face cream), 14 days
[49] = Example 12, oil-in-water emulsion with non-ionic surfactants (face cream), Initial
[50] = Example 13, oil-in-water emulsion with non-ionic surfactants (sun protector, polysorbate 60), 7 days
[51] = Example 13, oil-in-water emulsion with non-ionic surfactants (sun protector, polysorbate 60), 14 days
[52] = Example 13, oil-in-water emulsion with non-ionic surfactants (sun protector, polysorbate 60), Initial
[53] = Example 14, oil-in-water emulsion with non-ionic surfactants (sun protector, cetyl dimethicone copolyol), 7 days
[54] = Example 14, oil-in-water emulsion with non-ionic surfactants (sun protector, cetyl dimethicone copolyol), 14 days
[55] = Example 14, oil-in-water emulsion with non-ionic surfactants (sun protector, cetyl dimethicone copolyol), Initial
[56] = Example 15, emulsion for hands care, 7 days
[57] = Example 15, emulsion for hands care, 14 days
[58] = Example 15, emulsion for hands care, Initial

CCCCCCCCCCCC(=O)N[C@@H](CCCN=C(N)N)C(=O)OCC.Cl [LAE, ethyl ester of the lauramide of the arginine monohydrochloride]
viable count With LAE (Yeast; [14]): 9.5 · 10^2 cfu/mL | viable count With LAE (Yeast; [15]): 4.0 · 10^2 cfu/mL | viable count With LAE (Yeast; [16]): 5.6 · 10^5 cfu/mL | viable count With LAE (Yeast; [17]): 1.0 · 10^2 cfu/mL | viable count With LAE (Yeast; [18]): 1.0 · 10^2 cfu/mL | viable count With LAE (Yeast; [19]): 3.6 · 10^4 cfu/mL | viable count With LAE (Yeast; [20]): <9.9 · 10^1 cfu/mL | viable count With LAE (Yeast; [21]): <9.9 · 10^1 cfu/mL | viable count With LAE (Yeast; [22]): 7.0 · 10^4 cfu/mL | viable count With LAE (Yeast; [23]): <9.9 · 10^1 cfu/mL | viable count With LAE (Yeast; [24]): <9.9 · 10^1 cfu/mL | viable count With LAE (Yeast; [25]): 4.6 · 10^4 cfu/mL | viable count With LAE (Yeast; [26]): <9.9 · 10^1 cfu/mL | viable count With LAE (Yeast; [27]): <9.9 · 10^1 cfu/mL | viable count With LAE (Yeast; [28]): 3.6 · 10^4 cfu/mL | viable count With LAE (Yeast; [29]): 1.6 · 10^2 cfu/mL | viable count With LAE (Yeast; [30]): <9.9 · 10^1 cfu/mL | viable count With LAE (Yeast; [31]): 4.2 · 10^4 cfu/mL | viable count With LAE (Yeast; [32]): 1.1 · 10^2 cfu/mL | viable count With LAE (Yeast; [33]): <9.9 · 10^1 cfu/mL | viable count With LAE (Yeast; [34]): 1.2 · 10^4 cfu/mL | viable count With LAE (Yeast; [35]): 1.8 · 10^2 cfu/mL | viable count With LAE (Yeast; [36]): <9.9 · 10^1 cfu/mL | viable count With LAE (Yeast; [37]): 7.2 · 10^4 cfu/mL | viable count With LAE (Yeast; [38]): 2.3 · 10^2 cfu/mL | viable count With LAE (Yeast; [39]): <9.9 · 10^1 cfu/mL | viable count With LAE (Yeast; [40]): 7.2 · 10^4 cfu/mL | viable count With LAE (Yeast; [41]): 1.2 · 10^2 cfu/mL | viable count With LAE (Yeast; [42]): <9.9 · 10^1 cfu/mL | viable count With LAE (Yeast; [43]): 4.2 · 10^4 cfu/mL | viable count With LAE (Yeast; [44]): 1.2 · 10^2 cfu/mL | viable count With LAE (Yeast; [45]): <9.9 · 10^1 cfu/mL | viable count With LAE (Yeast; [46]): 4.2 · 10^4 cfu/mL | viable count With LAE (Yeast; [47]): 9.2 · 10^2 cfu/mL | viable count With LAE (Yeast; [48]): <9.9 · 10^1 cfu/mL | viable count With LAE (Yeast; [49]): 3.2 · 10^4 cfu/mL | viable count With LAE (Yeast; [50]): 4.2 · 10^2 cfu/mL | viable count With LAE (Yeast; [51]): <9.9 · 10^1 cfu/mL | viable count With LAE (Yeast; [52]): 3.8 · 10^4 cfu/mL | viable count With LAE (Yeast; [53]): 4.5 · 10^2 cfu/mL | viable count With LAE (Yeast; [54]): <9.9 · 10^1 cfu/mL | viable count With LAE (Yeast; [55]): 7.9 · 10^4 cfu/mL | viable count With LAE (Yeast; [56]): 7.2 · 10^2 cfu/mL | viable count With LAE (Yeast; [57]): <9.9 · 10^1 cfu/mL | viable count With LAE (Yeast; [58]): 8.6 · 10^4 cfu/mL | M.I.C. [1]: 16 ppm | M.I.C. [2]: 16 ppm | M.I.C. [3]: 128 ppm | M.I.C. [4]: 32 ppm | viable count With LAE (Aerobes; [14]): 3.1 · 10^3 cfu/mL | viable count With LAE (Aerobes; [15]): 3.3 · 10^2 cfu/mL | viable count With LAE (Aerobes; [16]): 1.1 · 10^6 cfu/mL | viable count With LAE (Aerobes; [17]): 1.6 · 10^4 cfu/mL | viable count With LAE (Aerobes; [18]): 6.5 · 10^2 cfu/mL | viable count With LAE (Aerobes; [19]): 2.7 · 10^6 cfu/mL | viable count With LAE (Aerobes; [20]): 1.8 · 10^3 cfu/mL | viable count With LAE (Aerobes; [21]): <9.9 · 10^1 cfu/mL | viable count With LAE (Aerobes; [22]): 6.2 · 10^6 cfu/mL | viable count With LAE (Aerobes; [23]): 5.8 · 10^3 cfu/mL | viable count With LAE (Aerobes; [24]): <9.9 · 10^1 cfu/mL | viable count With LAE (Aerobes; [25]): 3.3 · 10^6 cfu/mL | viable count With LAE (Aerobes; [26]): 4.8 · 10^2 cfu/mL | viable count With LAE (Aerobes; [27]): 1.3 · 10^2 cfu/mL | viable count With LAE (Aerobes; [28]): 6.7 · 10^6 cfu/mL | viable count With LAE (Aerobes; [29]): 6.9 · 10^3 cfu/mL | viable count With LAE (Aerobes; [30]): <9.9 · 10^1 cfu/mL | viable count With LAE (Aerobes; [31]): 3.7 · 10^6 cfu/mL | viable count With LAE (Aerobes; [32]): 3.6 · 10^3 cfu/mL | viable count With LAE (Aerobes; [33]): 5.9 · 10^2 cfu/mL | viable count With LAE (Aerobes; [34]): 2.7 · 10^6 cfu/mL | viable count With LAE (Aerobes; [35]): 3.8 · 10^3 cfu/mL | viable count With LAE (Aerobes; [36]): 6.7 · 10^2 cfu/mL | viable count With LAE (Aerobes; [37]): 4.5 · 10^6 cfu/mL | viable count With LAE (Aerobes; [38]): 7.6 · 10^3 cfu/mL | viable count With LAE (Aerobes; [39]): <9.9 · 10^1 cfu/mL | viable count With LAE (Aerobes; [40]): 4.5 · 10^6 cfu/mL | viable count With LAE (Aerobes; [41]): 3.3 · 10^3 cfu/mL | viable count With LAE (Aerobes; [42]): 8.0 · 10^2 cfu/mL | viable count With LAE (Aerobes; [43]): 4.5 · 10^6 cfu/mL | viable count With LAE (Aerobes; [44]): 4.8 · 10^3 cfu/mL | viable count With LAE (Aerobes; [45]): 7.0 · 10^2 cfu/mL | viable count With LAE (Aerobes; [46]): 3.3 · 10^6 cfu/mL | viable count With LAE (Aerobes; [47]): 3.7 · 10^4 cfu/mL | viable count With LAE (Aerobes; [48]): 1.9 · 10^3 cfu/mL | viable count With LAE (Aerobes; [49]): 1.1 · 10^6 cfu/mL | viable count With LAE (Aerobes; [50]): 8.4 · 10^3 cfu/mL | viable count With LAE (Aerobes; [51]): 7.5 · 10^2 cfu/mL | viable count With LAE (Aerobes; [52]): 3.1 · 10^6 cfu/mL | viable count With LAE (Aerobes; [53]): 9.4 · 10^2 cfu/mL | viable count With LAE (Aerobes; [54]): 8.7 · 10^2 cfu/mL | viable count With LAE (Aerobes; [55]): 1.4 · 10^6 cfu/mL | viable count With LAE (Aerobes; [56]): 3.3 · 10^3 cfu/mL | viable count With LAE (Aerobes; [57]): <9.9 · 10^1 cfu/mL | viable count With LAE (Aerobes; [58]): 4.4 · 10^6 cfu/mL | M.I.C. [5]: 16 ppm | M.I.C. [6]: 32 ppm | M.I.C. [7]: 16 ppm | M.I.C. [8]: 32 ppm | M.I.C. [9]: 64 ppm | M.I.C. [10]: 10 ppm | M.I.C. [11]: 32 ppm | M.I.C. [12]: 64 ppm | M.I.C. [13]: 32 ppm
